Test results as given in publication PMC8476755 (Frontiers in Chemistry, 2021).
“Also recorded” adds a separate entry of the source.

Molecular target: T1, human α1β2γ2 GABAA receptors (Homo sapiens, UniProt P14867+P47870)
T1 construct: expressed in transfected cells
Assay: FMP assay at GABAA receptors in HEK293 cells
Type: cell-based
Conditions: for Activity at α1β2γ2 GABAA receptors: 2 tested up to 100 µM
Source text: For this purpose we chose the major GABAA receptor subtype in the brain, α1β2γ2, and used the FMP assay for functional assessment as previously reported ([Falk-Petersen et al., 2020]). This assay detects changes in membrane potential for an average cell population through changes in fluorescence of a membrane pre-equilibrated fluorescent blue dye. It therefore provides an indirect measure of activity with the advantage of being able to discern between GAT substrates and inhibitors ([Kragholm et al., 2013]; [Al-Khawaja et al., 2014]; [Kickinger et al., 2020]).
The tsA201 cell line (a transformed HEK293 cell line), the Flp-In CHO cell lines stably expressing human (h) GATs and the HEK293 cell line stably expressing human α1β2γ2 GABAA receptors have been described previously and were cultured accordingly ([Al-Khawaja et al., 2014]; [Falk-Petersen et al., 2020]). […]
The FMP assay performed on human α1β2γ2 GABAA receptors in HEK293 cells was performed as described and data analyzed accordingly ([Falk-Petersen et al., 2020]). […] Test compound solutions were prepared at 4x concentration in assay buffer and added to ligand plates pre-heated at 37°C for 10–15 min in the FLEXstation3 plate reader (Molecular Devices). After incubation, 33.3 µL test compound solution (4x) was automatically transferred to each well in the cell plate and the signal was measured for 90 s by measuring emission at 560 nm caused by excitation at 530 nm. […] Data obtained in the FMP assay are given as relative changes in fluorescence units (ΔRFU) by subtracting the average of the baseline fluorescence signal from the peak fluorescence signal after compound addition. […] A Gaddum-Schild plot was performed according to the equation: log(dr-1) = log(B)+pA2, where B is the concentration of the inhibitor, pA2 is the negative logarithm of the dissociation constant KB, and the dose-ratio dr is equal to the EC′50/EC50, where EC′50 and EC50 are determined in the presence and absence of the different inhibitor concentrations, respectively. […]

T1 sequence (P14867 28-456): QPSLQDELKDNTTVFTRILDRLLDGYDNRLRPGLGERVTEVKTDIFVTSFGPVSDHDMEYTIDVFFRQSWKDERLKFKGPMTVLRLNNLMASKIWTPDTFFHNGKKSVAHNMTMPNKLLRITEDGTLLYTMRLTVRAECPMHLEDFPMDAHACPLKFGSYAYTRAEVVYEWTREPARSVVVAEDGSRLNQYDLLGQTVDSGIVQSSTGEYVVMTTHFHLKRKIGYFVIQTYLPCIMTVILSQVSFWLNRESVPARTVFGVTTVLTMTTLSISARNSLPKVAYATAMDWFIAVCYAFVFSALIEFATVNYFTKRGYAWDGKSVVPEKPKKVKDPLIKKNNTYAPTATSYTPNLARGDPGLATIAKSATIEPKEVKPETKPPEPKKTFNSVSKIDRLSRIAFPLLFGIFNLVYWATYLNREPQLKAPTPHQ
T1 sequence (P47870 25-512 limits assumed): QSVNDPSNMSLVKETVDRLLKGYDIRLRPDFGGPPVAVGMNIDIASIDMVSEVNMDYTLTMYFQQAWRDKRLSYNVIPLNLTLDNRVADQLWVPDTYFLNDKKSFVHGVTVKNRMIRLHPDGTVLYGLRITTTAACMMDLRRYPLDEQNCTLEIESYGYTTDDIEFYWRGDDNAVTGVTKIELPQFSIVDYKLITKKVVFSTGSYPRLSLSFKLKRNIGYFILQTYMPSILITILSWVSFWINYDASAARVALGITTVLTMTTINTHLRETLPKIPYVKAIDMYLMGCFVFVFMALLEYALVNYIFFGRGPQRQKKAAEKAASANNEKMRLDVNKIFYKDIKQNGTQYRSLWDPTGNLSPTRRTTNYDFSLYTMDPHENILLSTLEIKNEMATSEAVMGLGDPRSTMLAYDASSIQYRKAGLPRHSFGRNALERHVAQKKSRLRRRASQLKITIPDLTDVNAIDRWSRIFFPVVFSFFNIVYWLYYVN
T1 sequence (P18507 40-475 partner): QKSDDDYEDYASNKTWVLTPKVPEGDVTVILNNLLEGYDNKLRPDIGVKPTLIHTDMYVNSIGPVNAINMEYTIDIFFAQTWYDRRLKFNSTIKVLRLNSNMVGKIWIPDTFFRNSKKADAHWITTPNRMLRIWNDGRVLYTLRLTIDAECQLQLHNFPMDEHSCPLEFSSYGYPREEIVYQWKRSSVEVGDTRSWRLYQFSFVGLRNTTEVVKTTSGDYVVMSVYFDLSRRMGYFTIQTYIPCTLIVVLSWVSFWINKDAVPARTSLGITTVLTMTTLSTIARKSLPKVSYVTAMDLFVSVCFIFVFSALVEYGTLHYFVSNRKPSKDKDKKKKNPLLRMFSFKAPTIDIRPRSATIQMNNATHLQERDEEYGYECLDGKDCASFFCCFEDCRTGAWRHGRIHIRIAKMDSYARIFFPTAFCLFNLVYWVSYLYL

SMILES | Activity at α1β2γ2 GABAA receptors | EC50 (agonist activity, HEK293 cells) [µM]
CN[C@@]12CC[C@H](C(=O)O)[C@@H]1C2 [compound 2] | completely devoid of activity; also recorded: inactive | –
N[C@@]12CC[C@H](C(=O)O)[C@@H]1C2 [bicyclo-GABA, (1S,2S,5R)-5-aminobicyclo[3.1.0]hexane-2-carboxylic acid] | low micromolar agonistic activity | 5.1
